Measured values as given in ChEMBL document CHEMBL4837225, “Water-soluble derivatives of evodiamine: Discovery of evodiamine-10-phosphate as an orally active antitumor lead compound” (Eur J Med Chem, 2021).
Calls of active or inactive are those of the source. The calls are words filed in the database; no cut-off is given here.

How the values were obtained:
HCT-116 [1] = experiment: Antiproliferative activity against human HCT-116 cells assessed as inhibition of cell proliferation incubated for 72 hrs by CCK8 assay; type: functional, cell-based; settings: HCT-116, 72 h
MDA-MB-231 = experiment: Antiproliferative activity against human MDA-MB-231 cells assessed as inhibition of cell proliferation incubated for 72 hrs by CCK8 assay; type: functional, cell-based; settings: MDA-MB-231, 72 h
A549 [2] = experiment: Antiproliferative activity against human A549 cells assessed as inhibition of cell proliferation incubated for 72 hrs by CCK8 assay; type: functional, cell-based; settings: A549, 72 h
[3] = biological target: DNA topoisomerase 2-alpha (Homo sapiens) (UniProt P11388); experiment: Inhibition of TOP2 (unknown origin) assessed as formation of short DNA fragments using supercoiled plasmid DNA at 100 uM by ethidium bromide staining based gel
[4] = Half life in mouse liver microsomes; type: ADME, Microsome
HCT-116 [5] = experiment: Antitumor activity against human HCT-116 cells xenografted in BALB/c nude mouse assessed as inhibition of tumor growth at 60 mg/kg, po BID administered for 21 days measured by caliper relative to control; type: functional; settings: HCT-116, po, 504 h, time 21 day, read-out: TGI
A549 [6] = experiment: Antitumor activity against human A549 cells xenografted in BALB/c nude mouse assessed as inhibition of tumor growth at 150 mg/kg, po BID for 14 days relative to control; type: functional; settings: 336 h, time 14 day, read-out: TGI
[7] = Toxicity in BALB/c nude mouse xenografted with human A549 cells assessed as effect on body weight at 150 mg/kg, po bid for 14 days; type: organism-based; settings: in vivo, 336 h, time 14 day
[8] = Toxicity in BALB/c nude mouse xenografted with human A549 cells assessed as morphological changes in kidney at 150 mg/kg, po bid by H&E staining based light microscopic analysis; type: organism-based; settings: in vivo
[9] = Toxicity in BALB/c nude mouse xenografted with human A549 cells assessed as morphological changes in liver at 150 mg/kg, po bid by H&E staining based light microscopic analysis; type: organism-based; settings: in vivo
HCT-116 [10] = experiment: Antitumor activity against human HCT-116 cells xenografted in BALB/c nude mouse assessed as necrosis at 150 mg/kg, po bid by H&E staining based light microscopic analysis; type: functional, organism-based
HCT-116 [11] = experiment: Induction of apoptosis in human HCT-116 cells assessed as early apoptotic cells level at 0.05 uM incubated for 48 hrs by annexin V-FITC/propidium iodide staining based flow cytometry (reference value: 2.02%); type: functional
HCT-116 [12] = experiment: Induction of apoptosis in human HCT-116 cells assessed as late apoptotic cells level at 0.05 uM incubated for 48 hrs by annexin V-FITC/propidium iodide staining based flow cytometry (reference value: 1.87%); type: functional
HCT-116 [13] = experiment: Induction of apoptosis in human HCT-116 cells assessed as late apoptotic cells level at 0.1 uM incubated for 48 hrs by annexin V-FITC/propidium iodide staining based flow cytometry (reference value: 1.87%); type: functional
HCT-116 [14] = experiment: Induction of apoptosis in human HCT-116 cells assessed as early apoptotic cells level at 0.5 uM incubated for 48 hrs by annexin V-FITC/propidium iodide staining based flow cytometry (reference value: 2.02%); type: functional
HCT-116 [15] = experiment: Induction of apoptosis in human HCT-116 cells assessed as upregulation of Bax expression at 0.2 to 5 uM measured after 24 hrs by Western blot analysis; type: functional, cell-based; settings: dose 0.2-5 µM
HCT-116 [16] = experiment: Induction of apoptosis in human HCT-116 cells assessed as downregulation of Bcl-2 expression at 0.2 to 5 uM measured after 24 hrs by Western blot analysis; type: functional, cell-based; settings: dose 0.2-5 µM
HCT-116 [17] = experiment: Induction of apoptosis in human HCT-116 cells assessed as increase in ratio of Bax to Bcl2 level at 0.2 to 5 uM measured after 24 hrs by Western blot analysis; type: functional, cell-based; settings: dose 0.2-5 µM
HCT-116 [18] = experiment: Induction of apoptosis in human HCT-116 cells assessed as increase in caspase-9 level at 0.2 to 5 uM measured after 24 hrs by Western blot analysis; type: functional, cell-based; settings: dose 0.2-5 µM
HCT-116 [19] = experiment: Induction of apoptosis in human HCT-116 cells assessed as increase in p-53 level at 0.2 to 5 uM measured after 24 hrs by Western blot analysis; type: functional, cell-based; settings: dose 0.2-5 µM
HCT-116 [20] = experiment: Cell cycle arrest in human HCT-116 cells assessed as accumulation at G1 phase at 0.1 uM incubated for 24 hrs by propidium iodide staining based flow cytometric analysis (Rvb =35.7 %); type: functional
HCT-116 [21] = experiment: Cell cycle arrest in human HCT-116 cells assessed as accumulation at G1 phase at 0.5 uM incubated for 24 hrs by propidium iodide staining based flow cytometric analysis (Rvb =35.7 %); type: functional
HCT-116 [22] = experiment: Cell cycle arrest in human HCT-116 cells assessed as accumulation at S phase at 0.5 uM incubated for 24 hrs by propidium iodide staining based flow cytometric analysis (Rvb =44.3 %); type: functional
HCT-116 [23] = experiment: Cell cycle arrest in human HCT-116 cells assessed as accumulation at G2 phase at 0.5 uM incubated for 24 hrs by propidium iodide staining based flow cytometric analysis (Rvb =20 %); type: functional
[24] = biological target: T1, DNA topoisomerase 1 (Homo sapiens) (UniProt P11387); experiment: Inhibition of TOP1 (unknown origin) assessed as decrease in relaxation of supercoiled DNA using pBR322 plasmid DNA by ethidium bromide staining based gel electrophoresis
T1 sequence (whole entry): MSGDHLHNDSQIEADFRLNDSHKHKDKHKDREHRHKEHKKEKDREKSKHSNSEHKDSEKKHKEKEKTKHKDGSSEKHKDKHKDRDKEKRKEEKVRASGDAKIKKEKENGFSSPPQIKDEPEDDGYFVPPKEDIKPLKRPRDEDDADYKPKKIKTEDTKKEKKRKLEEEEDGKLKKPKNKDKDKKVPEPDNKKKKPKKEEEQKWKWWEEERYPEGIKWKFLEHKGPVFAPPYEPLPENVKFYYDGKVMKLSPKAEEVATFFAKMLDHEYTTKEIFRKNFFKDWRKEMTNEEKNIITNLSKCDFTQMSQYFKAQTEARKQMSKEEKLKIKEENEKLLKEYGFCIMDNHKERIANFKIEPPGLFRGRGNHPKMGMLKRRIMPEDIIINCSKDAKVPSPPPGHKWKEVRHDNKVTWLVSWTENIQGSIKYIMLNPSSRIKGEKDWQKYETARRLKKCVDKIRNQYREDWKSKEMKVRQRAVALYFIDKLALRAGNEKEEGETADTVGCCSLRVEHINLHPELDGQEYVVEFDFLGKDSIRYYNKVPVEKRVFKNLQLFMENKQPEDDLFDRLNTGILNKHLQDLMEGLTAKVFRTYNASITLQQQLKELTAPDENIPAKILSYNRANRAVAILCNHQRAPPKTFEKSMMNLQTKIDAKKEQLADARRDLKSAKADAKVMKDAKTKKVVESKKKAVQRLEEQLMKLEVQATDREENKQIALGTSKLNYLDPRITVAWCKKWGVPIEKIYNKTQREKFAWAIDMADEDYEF

[25] = biological target: DNA topoisomerase 2-alpha (Homo sapiens) (UniProt P11388); experiment: Inhibition of TOP2 (unknown origin) by ethidium bromide staining based gel electrophoresis
[26] = Solubility of the compound in PBS buffer at pH 7.4; type: physicochemical

Chain of DNA topoisomerase 2-alpha (Homo sapiens) (P11388 whole entry, the tested form may be a part): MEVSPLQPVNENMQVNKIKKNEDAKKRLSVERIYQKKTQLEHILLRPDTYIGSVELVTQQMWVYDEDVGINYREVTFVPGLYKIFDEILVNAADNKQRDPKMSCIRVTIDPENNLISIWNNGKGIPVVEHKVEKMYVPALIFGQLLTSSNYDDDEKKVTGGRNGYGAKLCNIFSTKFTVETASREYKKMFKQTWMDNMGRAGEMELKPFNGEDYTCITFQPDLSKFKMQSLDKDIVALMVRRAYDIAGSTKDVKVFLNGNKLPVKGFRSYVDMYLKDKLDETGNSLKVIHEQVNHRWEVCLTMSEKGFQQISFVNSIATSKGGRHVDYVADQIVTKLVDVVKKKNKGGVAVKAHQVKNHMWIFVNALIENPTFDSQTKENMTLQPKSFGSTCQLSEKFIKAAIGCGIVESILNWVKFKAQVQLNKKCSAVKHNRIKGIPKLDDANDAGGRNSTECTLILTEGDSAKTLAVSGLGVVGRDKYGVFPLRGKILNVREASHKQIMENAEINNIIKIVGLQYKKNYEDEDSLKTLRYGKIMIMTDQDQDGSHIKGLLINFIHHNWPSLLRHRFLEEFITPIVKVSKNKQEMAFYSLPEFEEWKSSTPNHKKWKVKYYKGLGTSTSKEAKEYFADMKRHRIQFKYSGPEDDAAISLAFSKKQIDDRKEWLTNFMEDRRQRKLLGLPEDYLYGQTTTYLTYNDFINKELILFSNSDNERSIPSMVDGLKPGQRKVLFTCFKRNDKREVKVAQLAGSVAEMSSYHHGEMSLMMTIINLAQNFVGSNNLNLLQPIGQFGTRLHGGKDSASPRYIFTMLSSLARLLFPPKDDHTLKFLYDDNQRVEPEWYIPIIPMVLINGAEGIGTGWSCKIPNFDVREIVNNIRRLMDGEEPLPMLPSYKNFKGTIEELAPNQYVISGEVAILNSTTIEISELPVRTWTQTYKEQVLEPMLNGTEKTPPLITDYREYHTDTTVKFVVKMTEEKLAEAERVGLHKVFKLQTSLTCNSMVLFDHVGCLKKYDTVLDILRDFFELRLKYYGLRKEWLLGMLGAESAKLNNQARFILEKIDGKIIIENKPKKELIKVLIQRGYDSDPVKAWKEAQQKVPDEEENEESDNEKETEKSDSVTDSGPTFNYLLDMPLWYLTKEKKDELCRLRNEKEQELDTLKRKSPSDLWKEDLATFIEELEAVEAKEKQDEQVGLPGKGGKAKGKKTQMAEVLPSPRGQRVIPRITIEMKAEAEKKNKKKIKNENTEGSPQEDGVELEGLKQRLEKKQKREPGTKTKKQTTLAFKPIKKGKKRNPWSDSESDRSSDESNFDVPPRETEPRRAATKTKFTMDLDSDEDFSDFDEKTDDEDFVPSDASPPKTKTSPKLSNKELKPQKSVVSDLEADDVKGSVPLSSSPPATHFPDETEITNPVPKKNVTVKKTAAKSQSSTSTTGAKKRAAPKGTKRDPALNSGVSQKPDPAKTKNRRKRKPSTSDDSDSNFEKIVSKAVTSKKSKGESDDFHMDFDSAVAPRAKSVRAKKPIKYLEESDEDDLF

## CN1c2ccccc2C(=O)N2CCc3c([nH]c4ccc(OP(=O)(O)O)cc34)C21 (configuration not stated)
HCT-116 [1]
  IC50: 66 nM
MDA-MB-231
  IC50: 650 nM
A549 [2]
  IC50: 2600 nM
[3]
  inhibition: Active
[4]
  half-life: 58.4 min
HCT-116 [5]
  inhibition in vivo at 60 mg/kg: 48%
A549 [6]
  inhibition in vivo at 150 mg/kg: 59%
[7]
  Activity: Non-Toxic
[8]
  Activity: Non-Toxic
[9]
  Activity: Non-Toxic
HCT-116 [10]
  Activity: Active
HCT-116 [11]
  Activity: 15.1%
HCT-116 [12]
  Activity: 8.45%
HCT-116 [13]
  Activity: 14.8%
HCT-116 [14]
  Activity: 44.04%
HCT-116 [15]
  Activity: Active
HCT-116 [16]
  Activity: Active
HCT-116 [17]
  Activity: Active
HCT-116 [18]
  Activity: Active
HCT-116 [19]
  Activity: Active
HCT-116 [20]
  Activity: 6%
HCT-116 [21]
  Activity: 4.3%
HCT-116 [22]
  Activity: 30.4%
HCT-116 [23]
  Activity: 65.3%
[24]
  inhibition: Dose-Dependent Effect
[25]
  inhibition: Dose-Dependent Effect
[26]
  solubility: > 1000 µg/mL
